Reference: patent publication US20050239757A1, “Hormone treatment of macular degeneration” (priority 2004, published 2005)
Values joined by “and” are separate entries in the source; they are usually repeats but may differ in a detail not shown here. Equal values may be shown once.

How the values were obtained:
[1] = system: serum anti-estrogen IgG antibodies; test: Competition ELISA: absorption of serum IgG anti-estrogen with specific and non-specific antigens; assay type: binding, human; settings: for Absorption of serum IgG antibodies, in words: antigen added to the liquid phase; for Inhibition of anti-estrogen binding to estrogen (IgG), range over samples: antigen in liquid phase, Table 2; for Percent inhibition after absorption (IgG) / Serum anti-estrogen IgG level after absorption: antigen 250 μg/mL; for Serum anti-estrogen IgG level after absorption: optical density at 405 nm
Protocol: (§1) Enzyme-linked immunosorbent assay (ELISA) was used for testing antibodies against estrogen and progesterone in the sera of patients with premenstrual asthma and with control subjects. […] Plates were incubated overnight at 4° C. and then washed three times with […] of Tris-buffered saline (TBS) containing 0.05% Tween 20, pH 7.4. […] Plates were incubated for 2 h (for IgG and IgM) and overnight (for IgE), and then washed four times with PBS-Tween 20. Alkaline-phosphatase-conjugated goat anti-human IgG, IgM or IgE F(ab′)2 fragment at optimal dilution of 1:700 (IgG); 1:500 (IgM) and 1:250 (IgE) was added to corresponding wells. The plates were then incubated for an additional 2 h at room temperature. After washing five times with TBS-Tween buffer, the enzyme reaction was started by adding 100 μl of para-nitrophenylphosphate in 0.1 mL of diethanolamine buffer (1 mg/ml) containing 1 mM MgCl2 and sodium azide, pH 9.8. The reaction was stopped 45 minutes later with 50 μl of 1 N NaOH. The optical density was read at 405 nm (OD405) with a microtiter reader.
(§2) 100 μl of serum diluent buffer was added to all wells. […] After a 60-minute incubation, 100 μl serum anti-estrogen or anti-progesterone was added to all wells. […] Results were calculated as a percentage of inhibition in antigen-antibody reaction.
(§3) To examine whether antibodies to estrogen or progesterone are specific or cross-reactive, competition ELISA was performed by adding specific and non-specific antigens in liquid phase and examined prevention of serum antibody binding to the antigen in solid phase. […] This cross-reaction between estrogen and progesterone antibodies may be due to structural similarities between these two hormones.

[2] = system: serum anti-estrogen IgE antibodies; test: Competition ELISA: absorption of serum IgE anti-estrogen with specific and non-specific antigens; assay type: binding, human; settings: for Absorption of serum IgE antibodies, in words: antigen added to the liquid phase; for Inhibition of IgE anti-estrogen binding, range over samples: antigen in liquid phase, summary of Table 3; for Percent inhibition after absorption (IgE) / Serum anti-estrogen IgE level after absorption: antigen 250 μg/mL; for Serum anti-estrogen IgE level after absorption: optical density at 405 nm
Protocol: as §1, §2, §3

macular degeneration = test: Clinical case: sublingual progesterone in a patient with macular degeneration; assay type: in vivo, human
Protocol: An adult human presented with macular degeneration. They had visual acuity of 20/200 in each eye. After the use of sublingual progesterone, one application, their vision improved to 20/100 and 20/40. […] They were evaluated for hormone allergy therapy by assessing their anti-hormone antibodies and found to have elevated levels of IgE, IgG, and IgM antibodies to progesterone.
The subject then received progesterone 1:10 sublingual drops which they continue to use.

[3] = serum sample 1, before absorption 1.83
[4] = serum sample 2, before absorption 1.25
[5] = serum sample 3, before absorption 0.76
[6] = serum sample 1, before absorption 2.15
[7] = serum sample 2, before absorption 1.66
[8] = serum sample 3, before absorption 1.34

Row | Molecule | Absorption of serum IgG antibodies, in words [1] | Inhibition of anti-estrogen binding to estrogen (IgG), range over samples [1] | Percent inhibition after absorption (IgG) ([1]; serum sample 1) | Serum anti-estrogen IgG level after absorption [1, 3] | Percent inhibition after absorption (IgG) ([1]; serum sample 2) | Serum anti-estrogen IgG level after absorption [1, 4] | Percent inhibition after absorption (IgG) ([1]; serum sample 3) | Serum anti-estrogen IgG level after absorption [1, 5] | Absorption of serum IgE antibodies, in words [2] | Inhibition of IgE anti-estrogen binding, range over samples [2] | Percent inhibition after absorption (IgE) ([2]; serum sample 1) | Serum anti-estrogen IgE level after absorption [2, 6] | Percent inhibition after absorption (IgE) ([2]; serum sample 2) | Serum anti-estrogen IgE level after absorption [2, 7] | Percent inhibition after absorption (IgE) ([2]; serum sample 3) | Serum anti-estrogen IgE level after absorption [2, 8] | Visual acuity after treatment (macular degeneration; adult human female, sublingual, one application, baseline 20/200 in each eye) | Ophthalmologist's assessment (macular degeneration; return visit two weeks later, as reported by the patient)
1 | En: Estrogen (estradiol) bound to bovine serum albumin, purchased from Sigma; specific antigen in competition ELISA | significantly absorbed | 52-67% | (67%) | 0.61 | (59%) | 0.52 | (52%) | 0.37 | significantly absorbed | 54-62% | (55%) | 0.96 | (54%) | 0.77 | (62%) | 0.51 |  | 
2 | Pn: Progesterone bound to bovine serum albumin, purchased from Sigma; antigen in competition ELISA | significantly absorbed | 41-52% | (52%) | 0.87 | (45%) | 0.69 | (41%) | 0.45 | significantly absorbed | 37-43% | (37%) | 1.35 |  | 0.98 | (43%) | 0.76 |  | 
3 | CC(=O)[C@H]1CC[C@H]2[C@@H]3CCC4=CC(=O)CC[C@]4(C)[C@H]3CC[C@]12C [progesterone] |  |  |  |  |  |  |  |  |  |  |  |  |  |  |  |  | 20/100 and 20/40 | remarkably improved
4 | bovine serum albumin [BSA] | did not absorb |  |  | 1.79 |  | 1.13 |  | 0.81 | did not absorb |  |  | 2.24 |  | 1.53 |  | 1.26 |  | 
5 | myelin basic protein (protein, UniProt P02686 1-304, looked up) Myelin basic protein: MGNHAGKRELNAEKASTNSETNRGESEKKRNLGELSRTTSEDNEVFGEADANQNNGTSSQDTAVTDSKRTADPKNAWQDAHPADPGSRPHLIRLFSRDAPGREDNTFKDRPSESDELQTIQEDSAATSESLDVMASQKRPSQRHGSKYLATASTMDHARHGFLPRHRDTGILDSIGRFFGGDRGAPKRGSGKDSHHPARTAHYGSLPQKSHGRTQDENPVVHFFKNIVTPRTPPPSQGKGRGLSLSRFSWGAEGQRPGFGYGGRASDYKSAHKGFKGVDAQGTLSKIFKLGGRDSRSGSPMARR | did not absorb |  |  | 1.67 |  | 1.13 |  | 0.68 | did not absorb |  |  | 2.05 |  | 1.73 |  | 1.11 |  | 
